Measured values published in patent US9540355B2, “Irciniastatin analogues” (priority 2013, dated 2017).

Assays:
HCT-116 [1] = conditions: colon cancer HCT-116; read-out: LC50 (the source's name); cited from earlier work
DU-145 = conditions: prostate DU-145; cited from earlier work
K-562 = conditions: leukemia K-562; read-out: LC50 (the source's name); cited from earlier work
[2] = test system: panel of 60 human cancer cell lines; conditions: cited from earlier work
SK-MEL-5 = conditions: melanoma SK-MEL-5; read-out: LC50 (the source's name); cited from earlier work
NCI/ADR-RES = conditions: breast cancer NCI/ADR-RES; read-out: LC50 (the source's name); cited from earlier work
SW-620 = conditions: colon cancer SW-620; read-out: LC50 (the source's name); cited from earlier work
A2058 = experiment: Cell growth inhibition assay (CellTiter-Glo); assay type: cell-based, human
Protocol: (§1) Cell Culture and Cell Growth Inhibition Assay.
(§2) The chosen cell lines are all human cancer cell lines except for the 4T1 murine breast cancer line, representing a wide variety of cancer types including breast (MDA-MB-453), kidney (A498), lung (H1975), pancreatic (PANC-1) and endometrial cancer (AN3CA, HEC-1A, and RL95-2), glioblastoma (U251 and U-87MG), melanoma (A2058 and LOXIMVI) and uterine sarcoma (MES-SA). All the cancer cell lines can be obtained from the American Type Culture Collection (ATCC, Manassas, Va., USA) with the exception of U251 which can be provided by the National Cancer Institute Tumor Repository (Frederick, Md.) and is cultured in the standard tissue culture media appropriate for each cell line. All the culture media are supplemented with 10% fetal bovine serum (FBS), 100 I.U./mL penicillin and 100 μg/mL streptomycin. For the cell growth inhibition assay, the cells are seeded in 96-well tissue culture plates at 500-3000 cells/well (seeding density empirically adjusted for each cell line based on growth rate optimization). The cells are allowed to attach for a minimum of 5 h prior to compound administration. The cells are incubated for a period of 4 days after compound addition. Following the incubation period, CellTiter-Glo reagent (Promega, Madison, Wis., USA) is added to all the wells to assess cell proliferation/viability. Luminescence is measured using an Envision microplate reader (Perkin Elmer, Waltham, Mass., USA). The IC50 values were calculated as the concentration which inhibited cell growth to 50% of DMSO control treated cell populations.

HCT-116 [3] = experiment: Cell growth inhibition assay (CellTiter-Glo); assay type: cell-based, human
Protocol: as §1, §2

H522-T1 = experiment: Cell growth inhibition assay (CellTiter-Glo); assay type: cell-based, human
Protocol: as §1, §2

MALME-3M = conditions: melanoma MALME-3M; read-out: LC50 (the source's name); cited from earlier work
NCI-H460 = conditions: lung NCI-H460; cited from earlier work
MCF7 = conditions: breast cancer MCF7; read-out: LC50 (the source's name); cited from earlier work
HT29 = conditions: colon cancer HT29; read-out: LC50 (the source's name); cited from earlier work
LOX IMVI = conditions: melanoma LOX IMVI; read-out: LC50 (the source's name); cited from earlier work
[4] = test system: human umbilical vein endothelial cells (HUVEC); conditions: normal endothelial HUVEC; cited from earlier work
CCRF-CEM = conditions: leukemia CCRF-CEM; cited from earlier work
KM20L2 = conditions: colon KM20L2; cited from earlier work
UACC-257 = conditions: melanoma UACC-257; read-out: LC50 (the source's name); cited from earlier work
HS 578T = conditions: breast cancer HS 578T; cited from earlier work
T-47D = conditions: breast cancer T-47D; read-out: LC50 (the source's name); cited from earlier work
[5] = test system: several solid tumor cell lines; conditions: cited from earlier work
SF-268 = conditions: CNS SF-268; cited from earlier work
BXPC-3 = conditions: pancreas BXPC-3; cited from earlier work
SK-MEL-2 = conditions: melanoma SK-MEL-2; read-out: LC50 (the source's name); cited from earlier work
UACC-62 = conditions: melanoma UACC-62; read-out: LC50 (the source's name); cited from earlier work
[6] = test system: P388 murine lymphocytic leukemia cell line; conditions: cited from earlier work
HL-60(TB) = conditions: leukemia HL-60(TB); read-out: LC50 (the source's name); cited from earlier work
[7] = Homo sapiens, 96 h, 4 days incubation
[8] = ratio IC50[IMR-90]:IC50[tumor cell line]

C=C(C)C[C@H](OC)[C@H](O)C(=O)N[C@@H](OC)[C@@H]1C[C@@H](O)C(C)(C)[C@@H](C[C@H](O)[C@@H](C)[C@H]2Cc3c(C)c(O)cc(O)c3C(=O)O2)O1 [Irciniastatin A, (+)-Irciniastatin A]
CC50 (HCT-116 [1]): < 0.0025 µM | Growth Inhibition of Cancer Cell Lines (GI50) (DU-145): 2.4 ng/mL | CC50 (K-562): > 25 µM | activity differential as compared to other cell lines within their respective subsets ([2]; MDA-MB-35, SK-MEL-28, UACC-62, HCT-116 versus other lines of the subset): greater than 10,000 fold | activities ([2]; MDA-MB-35 breast cancer, SK-MEL-28 and UACC-62 melanoma, HCT-116 colon cancer cell lines): low nanomolar range | CC50 (SK-MEL-5): < 0.0025 µM | CC50 (NCI/ADR-RES): 19 µM | CC50 (SW-620): > 25 µM | IC50 (A2058; [7]): 0.4 nM | Selectivity vs. IMR-90, A2058 (A2058; [8]): 68 | IC50 (HCT-116 [3]; [7]): 4 nM | Selectivity vs. IMR-90, HCT-116 (HCT-116 [3]; [8]): 7 | IC50 (H522-T1; [7]): 1 nM | Selectivity vs. IMR-90, H522-T1 (H522-T1; [8]): 27 | CC50 (MALME-3M): < 0.0025 µM | Growth Inhibition of Cancer Cell Lines (GI50) (NCI-H460): <0.1 ng/mL | CC50 (MCF7): > 25 µM | CC50 (HT29): > 25 µM | CC50 (LOX IMVI): > 25 µM | Growth Inhibition of Cancer Cell Lines (GI50) [4]: <0.5 ng/mL | LC50 (CCRF-CEM): > 25 µM | Growth Inhibition of Cancer Cell Lines (GI50) (KM20L2): 2.7 ng/mL | CC50 (UACC-257): > 25 µM | LC50 (HS 578T): > 25 µM | CC50 (T-47D): 13.6 µM | hollow fiber assay overall score ([5]; compounds considered active score 20 or higher): 34 | hollow fiber assay score against intraperitoneal fibers ([5]; intraperitoneal fibers): 28 | hollow fiber assay score against subcutaneous fibers ([5]; subcutaneous fibers): 6 | Growth Inhibition of Cancer Cell Lines (GI50) (SF-268): 3.4 ng/mL | Growth Inhibition of Cancer Cell Lines (GI50) (BXPC-3): 3.8 ng/mL | CC50 (SK-MEL-2): > 25 µM | CC50 (UACC-62): < 0.0025 µM | Growth Inhibition of Cancer Cell Lines (GI50) [6]: 4.13 ng/mL | CC50 (HL-60(TB)): > 25 µM
